Values of other authors in patent publication US20250049951A1, “NUCLEIC ACID COMPOSITIONS AND USES THEREOF” (SURGE Therapeutics, Inc., priority 2021, published 2025).
Values joined by “and” are separate entries in the source; they are usually repeats but may differ in a detail not shown here. Identical values can stand only once.

Assays:
TLR7 = target: T1, TLR7 (Homo sapiens, UniProt Q9NYK1)
T1 construct: expressed in transfected cells; host or cells: HEK293
T1 sequence (Q9NYK1 27-1049): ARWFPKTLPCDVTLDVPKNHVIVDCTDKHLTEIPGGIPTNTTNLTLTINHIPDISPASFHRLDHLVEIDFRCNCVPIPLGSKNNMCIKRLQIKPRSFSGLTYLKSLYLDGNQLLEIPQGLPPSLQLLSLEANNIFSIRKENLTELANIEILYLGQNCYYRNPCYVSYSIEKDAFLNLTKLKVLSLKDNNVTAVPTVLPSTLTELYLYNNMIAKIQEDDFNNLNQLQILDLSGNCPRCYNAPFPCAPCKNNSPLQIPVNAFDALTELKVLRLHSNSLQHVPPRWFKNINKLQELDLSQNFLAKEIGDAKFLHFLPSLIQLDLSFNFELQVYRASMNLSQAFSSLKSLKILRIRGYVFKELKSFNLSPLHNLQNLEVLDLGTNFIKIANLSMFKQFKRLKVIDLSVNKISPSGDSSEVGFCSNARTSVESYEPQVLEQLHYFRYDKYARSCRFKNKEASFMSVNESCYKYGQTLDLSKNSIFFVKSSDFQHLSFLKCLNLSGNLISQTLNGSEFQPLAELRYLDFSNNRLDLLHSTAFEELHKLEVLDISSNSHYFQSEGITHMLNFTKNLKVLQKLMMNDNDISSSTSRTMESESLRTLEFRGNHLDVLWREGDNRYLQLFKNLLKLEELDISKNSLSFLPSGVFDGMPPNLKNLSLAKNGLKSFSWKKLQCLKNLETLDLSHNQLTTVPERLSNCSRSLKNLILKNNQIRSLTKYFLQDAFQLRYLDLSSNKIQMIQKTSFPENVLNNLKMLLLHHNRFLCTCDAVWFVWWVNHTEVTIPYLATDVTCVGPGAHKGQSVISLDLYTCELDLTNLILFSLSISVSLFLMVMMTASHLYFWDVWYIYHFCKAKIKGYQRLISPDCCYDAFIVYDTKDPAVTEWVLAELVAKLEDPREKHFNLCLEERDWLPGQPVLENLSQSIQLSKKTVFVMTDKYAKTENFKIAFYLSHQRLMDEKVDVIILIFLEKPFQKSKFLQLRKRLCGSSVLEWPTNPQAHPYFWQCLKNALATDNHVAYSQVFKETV

TLR8 = target: T2, TLR8 (Homo sapiens, UniProt Q9NR97); settings: TLR8-transfected HEK293 cells
T2 construct: expressed in transfected cells; host or cells: HEK293
T2 sequence (Q9NR97 27-1041): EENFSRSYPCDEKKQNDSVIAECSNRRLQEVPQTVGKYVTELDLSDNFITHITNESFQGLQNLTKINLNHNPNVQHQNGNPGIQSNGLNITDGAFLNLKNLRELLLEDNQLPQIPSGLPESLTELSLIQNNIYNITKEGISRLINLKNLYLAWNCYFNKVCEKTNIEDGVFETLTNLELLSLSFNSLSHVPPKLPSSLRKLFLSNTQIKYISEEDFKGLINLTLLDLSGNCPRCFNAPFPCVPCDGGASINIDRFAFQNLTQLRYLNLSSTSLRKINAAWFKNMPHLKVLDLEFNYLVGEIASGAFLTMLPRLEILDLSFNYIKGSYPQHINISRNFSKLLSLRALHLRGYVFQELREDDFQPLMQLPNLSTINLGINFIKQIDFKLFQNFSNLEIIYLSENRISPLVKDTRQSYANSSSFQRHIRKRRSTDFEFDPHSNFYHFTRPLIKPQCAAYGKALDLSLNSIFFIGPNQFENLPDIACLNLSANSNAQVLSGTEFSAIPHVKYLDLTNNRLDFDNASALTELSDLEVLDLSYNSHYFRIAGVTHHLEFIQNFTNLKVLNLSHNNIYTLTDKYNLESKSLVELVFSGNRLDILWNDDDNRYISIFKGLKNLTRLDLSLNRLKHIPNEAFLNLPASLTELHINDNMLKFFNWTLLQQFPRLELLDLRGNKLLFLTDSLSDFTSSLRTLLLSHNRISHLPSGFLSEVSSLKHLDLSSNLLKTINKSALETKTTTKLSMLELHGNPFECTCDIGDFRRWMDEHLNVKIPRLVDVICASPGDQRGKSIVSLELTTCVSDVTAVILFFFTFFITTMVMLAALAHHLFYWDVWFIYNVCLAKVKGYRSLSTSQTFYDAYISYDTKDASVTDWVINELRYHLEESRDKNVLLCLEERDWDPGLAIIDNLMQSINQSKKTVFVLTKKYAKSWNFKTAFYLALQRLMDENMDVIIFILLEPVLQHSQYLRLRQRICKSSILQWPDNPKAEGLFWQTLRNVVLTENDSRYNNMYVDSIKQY

Row | amount required to activate NF-κB in TLR7- relative to TLR8-transfected HEK293 cells (TLR7; times more than the 0.4 μM needed in TLR8 cells) | concentration inducing NF-κB activation (TLR8) | concentration inducing NF-κB activation (TLR7; TLR7-transfected HEK293 cells) | water solubility | potency in inducing NF-κB activation relative to CL075 (TLR8; more potent than CL075) | potency in inducing NF-κB activation relative to R848 (TLR8; more potent than R848) | Structure (SMILES)
1 | ~10 times | 0.4 μM and 0.1 μg/ml |  |  |  |  | CCCc1nc2c(N)nc3ccccc3c2s1 [CL075]
2 |  | 4 μM and 1 μg/ml | 0.4 μM and 0.1 μg/ml | ≥ 20 mg/mL |  |  | CCOCC1Nc2c(N)nc3ccccc3c2N1 (stereo not shown) [CL097]
3 |  |  |  |  | ~25 × | ~50 × | CCOC(=O)C1=Cc2ccc(-c3cccc(C#N)c3)cc2N=C(N)C1 [TL8-506]
